# Biological target: human PDE10A (Homo sapiens (Human), UniProt Q9Y233)
# Test: human PDE10A full length Scintillation Proximity Assay (SPA)
# Assay type: biochemical
# Conditions: 50 nM cGMP and 50 nM [3H]-cGMP, 20 minutes at room temperature; read-out: PDE10A inhibition IC50
# Experimental: The following test was carried out in order to determine the activity of the compounds of the present invention.
# The human PDE10A full length assay was performed in 96-well micro titer plates. […] Non-specific activity was tested without the enzyme. The reaction was initiated by the addition of the substrate solution (cGMP and [^3H]-cGMP) and allowed to progress for 20 minutes at room temperature. The reaction was terminated by adding 25 μl of YSi-SPA scintillation beads (GE Healthcare, cat. # RPNQ0150) in 18 mM zinc sulphate solution (stop reagent). After 1 h under shaking, the plate was centrifuged one minute at 170 g to allow beads to settle. Afterwards, radioactive counts were measured on a Perkin Elmer TopCount Scintillation plate reader.
# Sequence of human PDE10A (Q9Y233 other isoform, or with tags, fused parts or gaps): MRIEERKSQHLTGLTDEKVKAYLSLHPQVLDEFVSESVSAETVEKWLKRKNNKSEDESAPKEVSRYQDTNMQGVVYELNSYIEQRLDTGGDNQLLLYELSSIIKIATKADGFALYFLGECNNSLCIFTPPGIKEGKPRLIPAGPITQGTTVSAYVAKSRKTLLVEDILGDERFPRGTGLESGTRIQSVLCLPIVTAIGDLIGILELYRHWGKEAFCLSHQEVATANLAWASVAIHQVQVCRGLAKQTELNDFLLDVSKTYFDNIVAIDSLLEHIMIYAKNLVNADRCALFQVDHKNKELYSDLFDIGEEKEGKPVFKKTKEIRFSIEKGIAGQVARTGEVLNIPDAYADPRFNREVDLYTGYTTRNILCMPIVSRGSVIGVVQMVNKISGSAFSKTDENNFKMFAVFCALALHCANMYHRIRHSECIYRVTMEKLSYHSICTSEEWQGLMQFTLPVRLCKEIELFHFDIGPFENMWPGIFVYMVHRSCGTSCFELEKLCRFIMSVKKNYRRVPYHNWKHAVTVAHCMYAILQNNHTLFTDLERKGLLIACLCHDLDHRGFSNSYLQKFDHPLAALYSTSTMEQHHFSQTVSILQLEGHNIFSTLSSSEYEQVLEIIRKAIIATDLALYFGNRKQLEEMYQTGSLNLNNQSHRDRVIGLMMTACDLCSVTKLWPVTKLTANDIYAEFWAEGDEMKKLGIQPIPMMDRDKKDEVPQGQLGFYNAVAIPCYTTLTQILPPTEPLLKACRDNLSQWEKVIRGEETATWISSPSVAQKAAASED
row,IC50 [nM],Compound
1,2.1,"O=C(NC1CC1)c1ccncc1NC(=O)c1nc(C2CC2)ccc1Nc1cncnc1 [Example 57, 6-Cyclopropyl-3-(pyrimidin-5-ylamino)-pyridine-2-carboxylic acid (4-cyclopropylcarbamoyl-pyridin-3-yl)-amide]"
2,232,"O=C1CN(C(=O)c2ccncc2NC(=O)c2nc(C3CC3)ccc2Nc2cncnc2)CCN1 [Example 60, 6-Cyclopropyl-3-(pyrimidin-5-ylamino)-pyridine-2-carboxylic acid [4-(3-oxo-piperazine-1-carbonyl)-pyridin-3-yl]-amide]"
3,1110,"CNC(=O)c1nc(-c2ccccc2)sc1NC(=O)c1nc(C2CC2)ccc1Nc1cncnc1 [Example 64, 6-Cyclopropyl-3-(pyrimidin-5-ylamino)-pyridine-2-carboxylic acid (4-methylcarbamoyl-2-phenyl-thiazol-5-yl)-amide]"
4,1.4,"CNC(=O)c1nc(-c2ccccn2)sc1NC(=O)c1nc(C2CC2)ccc1Nc1cncnc1 [Example 65, 6-Cyclopropyl-3-(pyrimidin-5-ylamino)-pyridine-2-carboxylic acid (4-methylcarbamoyl-2-pyridin-2-yl-thiazol-5-yl)-amide]"
5,3.3,"O=C(NCCO)c1ccncc1NC(=O)c1nc(C2CC2)ccc1Nc1cncnc1 [Example 68, 6-Cyclopropyl-3-(pyrimidin-5-ylamino)-pyridine-2-carboxylic acid [4-(2-hydroxy-ethylcarbamoyl)-pyridin-3-yl]-amide]"
6,4.1,"O=C(NCC(O)CO)c1ccncc1NC(=O)c1nc(C2CC2)ccc1Nc1cncnc1 (centres unmarked) [Example 69, 6-Cyclopropyl-3-(pyrimidin-5-ylamino)-pyridine-2-carboxylic acid [4-(2,3-dihydroxy-propylcarbamoyl)-pyridin-3-yl]-amide]"
7,7.9,"CNC(=O)c1nn(C)cc1NC(=O)c1nc(C2CC2)ncc1Nc1cncnc1 [Example 76, 2-Cyclopropyl-5-(pyrimidin-5-ylamino)-pyrimidine-4-carboxylic acid (1-methyl-3-methylcarbamoyl-1H-pyrazol-4-yl)-amide]"
8,3.4,"CNC(=O)c1nn(C)cc1NC(=O)c1nc(C(C)(C)C)ncc1Nc1cncnc1 [Example 77, 2-tert-Butyl-5-(pyrimidin-5-ylamino)-pyrimidine-4-carboxylic acid (1-methyl-3-methylcarbamoyl-1H-pyrazol-4-yl)-amide]"
9,2,"O=C(NC1CCCCC1)c1ccncc1NC(=O)c1nc(C2CC2)ccc1Nc1cncnc1 [Example 78, 6-Cyclopropyl-3-(pyrimidin-5-ylamino)-pyridine-2-carboxylic acid (4-cyclohexylcarbamoyl-pyridin-3-yl)-amide]"
10,180,O=C(Nc1cnccc1C(=O)N1CCC(O)C1)c1nc(C2CC2)ccc1Nc1cncnc1 (centres unmarked) [Example 87]

# The remaining lines, values behind:
row,Compound,IC50 [nM]
1,"O=C(Nc1cnccc1C(=O)N1CCC(F)(F)C1)c1nc(C2CC2)ccc1Nc1cncnc1 [Example 56, 6-Cyclopropyl-3-(pyrimidin-5-ylamino)-pyridine-2-carboxylic acid [4-(3,3-difluoro-pyrrolidine-1-carbonyl)-pyridin-3-yl]-amide]",65.7
2,"O=C(NC1CCC1)c1ccncc1NC(=O)c1nc(C2CC2)ccc1Nc1cncnc1 [Example 58, 6-Cyclopropyl-3-(pyrimidin-5-ylamino)-pyridine-2-carboxylic acid (4-cyclobutylcarbamoyl-pyridin-3-yl)-amide]",1.1
3,"CC1CCC(C)N1C(=O)c1ccncc1NC(=O)c1nc(C2CC2)ccc1Nc1cncnc1 (centres unmarked) [Example 59, 6-Cyclopropyl-3-(pyrimidin-5-ylamino)-pyridine-2-carboxylic acid [4-(2,5-dimethyl-pyrrolidine-1-carbonyl)-pyridin-3-yl]-amide]",84.4
4,"O=C(NC1CCCC1)c1ccncc1NC(=O)c1nc(C2CC2)ccc1Nc1cncnc1 [Example 61, 6-Cyclopropyl-3-(pyrimidin-5-ylamino)-pyridine-2-carboxylic acid (4-cyclopentylcarbamoyl-pyridin-3-yl)-amide]",1.3
5,"COC1CCN(C(=O)c2ccncc2NC(=O)c2nc(C3CC3)ccc2Nc2cncnc2)C1 (centres unmarked) [Example 62, 6-Cyclopropyl-3-(pyrimidin-5-ylamino)-pyridine-2-carboxylic acid [4-(3-methoxy-pyrrolidine-1-carbonyl)-pyridin-3-yl]-amide]",93.9
6,"CC1(C)CCN(C(=O)c2ccncc2NC(=O)c2nc(C3CC3)ccc2Nc2cncnc2)C1 [Example 63, 6-Cyclopropyl-3-(pyrimidin-5-ylamino)-pyridine-2-carboxylic acid [4-(3,3-dimethyl-pyrrolidine-1-carbonyl)-pyridin-3-yl]-amide]",87
7,"CC(CO)NC(=O)c1ccncc1NC(=O)c1nc(C2CC2)ccc1Nc1cncnc1 (centres unmarked) [Example 66, 6-Cyclopropyl-3-(pyrimidin-5-ylamino)-pyridine-2-carboxylic acid [4-(2-hydroxy-1-methyl-ethylcarbamoyl)-pyridin-3-yl]-amide]",47.8
8,"O=C(Nc1cnccc1C(=O)N1CCC1)c1nc(C2CC2)ccc1Nc1cncnc1 [Example 67, 6-Cyclopropyl-3-(pyrimidin-5-ylamino)-pyridine-2-carboxylic acid [4-(azetidine-1-carbonyl)-pyridin-3-yl]-amide]",4.2
9,"CC(C)(O)CNC(=O)c1ccncc1NC(=O)c1nc(C2CC2)ccc1Nc1cncnc1 [Example 70, 6-Cyclopropyl-3-(pyrimidin-5-ylamino)-pyridine-2-carboxylic acid [4-(2-hydroxy-2-methyl-propylcarbamoyl)-pyridin-3-yl]-amide]",2.1
10,"CN(CCCO)C(=O)c1ccncc1NC(=O)c1nc(C2CC2)ccc1Nc1cncnc1 [Example 71, 6-Cyclopropyl-3-(pyrimidin-5-ylamino)-pyridine-2-carboxylic acid {4-[(3-hydroxy-propyl)-methyl-carbamoyl]-pyridin-3-yl}-amide]",56.4
11,"COCC(C)NC(=O)c1ccncc1NC(=O)c1nc(C2CC2)ccc1Nc1cncnc1 (centres unmarked) [Example 72, 6-Cyclopropyl-3-(pyrimidin-5-ylamino)-pyridine-2-carboxylic acid [4-(2-methoxy-1-methyl-ethylcarbamoyl)-pyridin-3-yl]-amide]",4.2
12,"CN(CCO)C(=O)c1ccncc1NC(=O)c1nc(C2CC2)ccc1Nc1cncnc1 [Example 73, 6-Cyclopropyl-3-(pyrimidin-5-ylamino)-pyridine-2-carboxylic acid {4-[(2-hydroxy-ethyl)-methyl-carbamoyl]-pyridin-3-yl}-amide]",18.9
13,"CN(C)C(=O)c1nn(-c2ccccn2)cc1NC(=O)c1nc(C2CC2)ccc1Nc1cncnc1 [Example 74, 6-Cyclopropyl-3-(pyrimidin-5-ylamino)-pyridine-2-carboxylic acid (3-dimethylcarbamoyl-1-pyridin-2-yl-1H-pyrazol-4-yl)-amide]",7.3
14,"CNC(=O)c1nn(C)cc1NC(=O)c1nc(C(C)C)ncc1Nc1cncnc1 [Example 75, 2-Isopropyl-5-(pyrimidin-5-ylamino)-pyrimidine-4-carboxylic acid (1-methyl-3-methylcarbamoyl-1H-pyrazol-4-yl)-amide]",8.8
15,"O=C(Nc1cnccc1C(=O)N1CC(F)(F)C1)c1nc(C2CC2)ccc1Nc1cncnc1 [Example 79, 6-Cyclopropyl-3-(pyrimidin-5-ylamino)-pyridine-2-carboxylic acid [4-(3,3-difluoro-azetidine-1-carbonyl)-pyridin-3-yl]-amide]",29.6
16,"O=C(Nc1cnccc1C(=O)N1CCCC1CO)c1nc(C2CC2)ccc1Nc1cncnc1 (centres unmarked) [Example 80, 6-Cyclopropyl-3-(pyrimidin-5-ylamino)-pyridine-2-carboxylic acid [4-(2-hydroxymethyl-pyrrolidine-1-carbonyl)-pyridin-3-yl]-amide]",105
17,"CNC(=O)c1cn2cc(-c3ccccc3)nc2cc1NC(=O)c1nc(C2CC2)ccc1Nc1cncnc1 [Example 81, 7-{[6-Cyclopropyl-3-(pyrimidin-5-ylamino)-pyridine-2-carbonyl]-amino}-2-phenyl-imidazo[1,2-a]pyridine-6-carboxylic acid methylamide]",0.4
18,"O=C(Nc1cnccc1C(=O)N1CC(O)C1)c1nc(C2CC2)ccc1Nc1cncnc1 [Example 82, 6-Cyclopropyl-3-(pyrimidin-5-ylamino)-pyridine-2-carboxylic acid [4-(3-hydroxy-azetidine-1-carbonyl)-pyridin-3-yl]-amide]",58.5
19,"CNC(=O)c1nn(C)cc1NC(=O)c1nc(CC(C)C)ncc1Nc1cncnc1 [Example 83, 2-Isobutyl-5-(pyrimidin-5-ylamino)-pyrimidine-4-carboxylic acid (1-methyl-3-methylcarbamoyl-1H-pyrazol-4-yl)-amide]",5.5
20,"CNC(=O)c1nn(C)cc1NC(=O)c1nc(C2CCCCC2)ncc1Nc1cncnc1 [Example 84, 2-Cyclohexyl-5-(pyrimidin-5-ylamino)-pyrimidine-4-carboxylic acid (1-methyl-3-methylcarbamoyl-1H-pyrazol-4-yl)-amide]",1.9
21,"CN(CC(O)CO)C(=O)c1ccncc1NC(=O)c1nc(C2CC2)ccc1Nc1cncnc1 (centres unmarked) [Example 86, 6-Cyclopropyl-3-(pyrimidin-5-ylamino)-pyridine-2-carboxylic acid {4-[(2,3-dihydroxy-propyl)-methyl-carbamoyl]-pyridin-3-yl}-amide]",215
22,"O=C(NC1CC1)c1ccsc1NC(=O)c1nc(C2CC2)ccc1Nc1cncnc1 [Example 89, 6-Cyclopropyl-3-(pyrimidin-5-ylamino)-pyridine-2-carboxylic acid (3-cyclopropylcarbamoyl-thiophen-2-yl)-amide]",0.5

# Reference: patent US8703768B2, “Nitrogen containing heteroaryl compounds” (Hoffmann-La Roche Inc., priority 2010, dated 2014)
